Assay results as given in patent publication US12673944B2, “Compounds having inhibitory activity against glucosylceramide synthase or pharmaceutically acceptable salt thereof, processes for preparing the same, and pharmaceutical compositions comprising the same” (YUHAN CORPORATION, priority 2019, dated 2026).

What was measured:
[1] = tested on: GM1 production in Jurkat cells; assay: cells; assay type: cell-based; settings: Homo sapiens, Jurkat, 72 h
[2] = target: T1, glucosylceramide synthase (GCS) (Homo sapiens, UniProt Q16739); assay: GCS enzyme inhibition assay (A549 cell lysate, NBD C6-ceramide, HPLC fluorescence); assay type: biochemical; settings: inhibitory activity against GCS, 37° C., 90 minutes
T1 construct: The obtained supernatant was used; host or cells: A549 cells (lysate supernatant after sonication)
T1 sequence (Q16739 1-394): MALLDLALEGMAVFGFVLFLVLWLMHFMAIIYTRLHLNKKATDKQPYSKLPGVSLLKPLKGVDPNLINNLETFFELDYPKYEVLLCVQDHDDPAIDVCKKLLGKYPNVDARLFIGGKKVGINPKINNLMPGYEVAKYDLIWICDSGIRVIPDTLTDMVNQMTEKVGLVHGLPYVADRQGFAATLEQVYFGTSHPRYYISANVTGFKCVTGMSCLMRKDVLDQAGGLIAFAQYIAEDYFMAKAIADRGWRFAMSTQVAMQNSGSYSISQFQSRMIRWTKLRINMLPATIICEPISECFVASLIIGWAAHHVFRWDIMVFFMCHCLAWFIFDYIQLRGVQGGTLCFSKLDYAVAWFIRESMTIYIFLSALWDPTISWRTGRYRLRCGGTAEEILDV
Outline: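 Percent GCS activity was derived from the GlcCer share of Cer plus GlcCer areas, scaled from ibiglustat (0%) to DMSO (100%). Enzyme came from sonicated A549 lysate in 50 mM HEPES pH 7.3; 90 min incubation at 37° C, chloroform/methanol stop and extraction.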

Row | SMILES | IC50 [1] | IC50 [2]
1 | CCOc1ccc(-c2ccc3c(c2)OCC(C)(C)C3NC(=O)O[C@@H]2CN3CCC2CC3)cc1C(F)(F)F (stereo partly drawn) [Example 146, (S)-quinuclidin-3-yl (7-(4-ethoxy-3-(trifluoromethyl)phenyl)-3,3-dimethylchroman-4-yl)carbamate] | 2.35 nM | 0.98 nM
2 | CC1(C)COc2cc(-c3coc4ccccc34)ccc2C1NC(=O)O[C@@H]1CN2CCC1CC2 (stereo partly drawn) [Example 147, (S)-quinuclidin-3-yl (7-(benzofuran-3-yl)-3,3-dimethylchroman-4-yl)carbamate] | 1 nM | 0.4 nM
3 | CN(C)c1cccc(-c2ccc3c(c2)OCC(C)(C)C3NC(=O)O[C@@H]2CN3CCC2CC3)c1 (stereo partly drawn) [Example 148, (S)-quinuclidin-3-yl (7-(3-(dimethylamino)phenyl)-3,3-dimethylchroman-4-yl)carbamate] | 0.03 nM | 0.74 nM
4 | CC1(C)COc2cc(-c3ccc4c(c3)OC(F)(F)O4)ccc2C1NC(=O)O[C@@H]1CN2CCC1CC2 (stereo partly drawn) [Example 149, (S)-quinuclidin-3-yl (7-(2,2-difluorobenzo[d][1,3]dioxol-5-yl)-3,3-dimethylchroman-4-yl)carbamate] | 0.03 nM | 0.41 nM
5 | CC1(C)COc2cc(-c3cc(Cl)ccc3Cl)ccc2C1NC(=O)O[C@@H]1CN2CCC1CC2 (stereo partly drawn) [Example 150, (S)-quinuclidin-3-yl (7-(2,5-dichlorophenyl)-3,3-dimethylchroman-4-yl)carbamate] | 0.4 nM | 0.72 nM
6 | CC(C)c1cccc(-c2ccc3c(c2)OCC(C)(C)C3NC(=O)O[C@@H]2CN3CCC2CC3)c1 (stereo partly drawn) [Example 151, (S)-quinuclidin-3-yl (7-(3-isopropylphenyl)-3,3-dimethylchroman-4-yl)carbamate] | 0.31 nM | 0.53 nM
7 | CC(C)(C)c1cccc(-c2ccc3c(c2)OCC(C)(C)C3NC(=O)O[C@@H]2CN3CCC2CC3)c1 (stereo partly drawn) [Example 152, (S)-quinuclidin-3-yl (7-(3-(tert-butyl)phenyl)-3,3-dimethylchroman-4-yl)carbamate] | 0.22 nM | 0.91 nM
8 | COc1ccc(Cl)c(-c2ccc3c(c2)OCC(C)(C)C3NC(=O)O[C@@H]2CN3CCC2CC3)c1 (stereo partly drawn) [Example 153, (S)-quinuclidin-3-yl (7-(2-chloro-5-methoxyphenyl)-3,3-dimethylchroman-4-yl)carbamate] | 0.06 nM | 0.48 nM
9 | CC1(C)COc2cc(-c3cccc(-c4ccccc4)c3)ccc2C1NC(=O)O[C@@H]1CN2CCC1CC2 (stereo partly drawn) [Example 154, (S)-quinuclidin-3-yl (7-([1,1′-biphenyl]-3-yl)-3,3-dimethylchroman-4-yl)carbamate] | 0.41 nM | 0.74 nM
10 | CC1(C)COc2cc(-c3cncc4ccccc34)ccc2C1NC(=O)O[C@@H]1CN2CCC1CC2 (stereo partly drawn) [Example 155, (S)-quinuclidin-3-yl (7-(isoquinolin-4-yl)-3,3-dimethylchroman-4-yl)carbamate] | 0.77 nM | 0.6 nM
11 | CC1(C)COc2cc(-c3ccccc3F)ccc2C1NC(=O)O[C@@H]1CN2CCC1CC2 (stereo partly drawn) [Example 156, (S)-quinuclidin-3-yl (7-(2-fluorophenyl)-3,3-dimethylchroman-4-yl)carbamate] | 0.27 nM | 0.29 nM
12 | CC1(C)COc2cc(-c3ccccc3OC(F)(F)F)ccc2C1NC(=O)O[C@@H]1CN2CCC1CC2 (stereo partly drawn) [Example 157, (S)-quinuclidin-3-yl (3,3-dimethyl-7-(2-(trifluoromethoxy)phenyl)chroman-4-yl)carbamate] | 0.12 nM | 0.48 nM
13 | CCOc1cccc(-c2ccc3c(c2)OCC(C)(C)C3NC(=O)O[C@@H]2CN3CCC2CC3)c1 (stereo partly drawn) [Example 158, (S)-quinuclidin-3-yl (7-(3-ethoxyphenyl)-3,3-dimethylchroman-4-yl)carbamate] | 1.5 nM | 0.42 nM
14 | Cn1ncc2c(-c3ccc4c(c3)OCC(C)(C)C4NC(=O)O[C@@H]3CN4CCC3CC4)cccc21 (stereo partly drawn) [Example 159, (S)-quinuclidin-3-yl (3,3-dimethyl-7-(1-methyl-1H-indazol-4-yl)chroman-4-yl)carbamate] | 0.55 nM | 0.57 nM
15 | CC1(C)COc2cc(-c3cccc4ccncc34)ccc2C1NC(=O)O[C@@H]1CN2CCC1CC2 (stereo partly drawn) [Example 160, (S)-quinuclidin-3-yl (7-(isoquinolin-8-yl)-3,3-dimethylchroman-4-yl)carbamate] | 0.54 nM | 0.52 nM
16 | CC1(C)COc2cc(-c3ccc(C4CC4)cc3)ccc2C1NC(=O)O[C@@H]1CN2CCC1CC2 (stereo partly drawn) [Example 161, (S)-quinuclidin-3-yl (7-(4-cyclopropylphenyl)-3,3-dimethylchroman-4-yl)carbamate] | 0.18 nM | 0.38 nM
17 | COc1ccccc1-c1ccc2c(c1)OCC(C)(C)C2NC(=O)O[C@@H]1CN2CCC1CC2 (stereo partly drawn) [Example 162, (S)-quinuclidin-3-yl (7-(2-methoxyphenyl)-3,3-dimethylchroman-4-yl)carbamate] | 0.02 nM | 0.52 nM
18 | CC1(C)COc2cc(-c3ccc4c(c3)CCCO4)ccc2C1NC(=O)O[C@@H]1CN2CCC1CC2 (stereo partly drawn) [Example 163, (S)-quinuclidin-3-yl (3′,3′-dimethyl-[6,7′-bichroman]-4′-yl)carbamate] | 0.5 nM | 0.59 nM
19 | CC1(C)COc2cc(-c3cc(Cl)cc(C(F)(F)F)c3)ccc2C1NC(=O)O[C@@H]1CN2CCC1CC2 (stereo partly drawn) [Example 164, (S)-quinuclidin-3-yl (7-(3-chloro-5-(trifluoromethyl)phenyl)-3,3-dimethylchroman-4-yl)carbamate] | 3.22 nM | 1.59 nM
20 | CC1(C)COc2cc(-c3cccc4cccnc34)ccc2C1NC(=O)O[C@@H]1CN2CCC1CC2 (stereo partly drawn) [Example 165, (S)-quinuclidin-3-yl (3,3-dimethyl-7-(quinolin-8-yl)chroman-4-yl)carbamate] | 0.66 nM | 0.82 nM
21 | COc1cccc(-c2ccc3c(c2)OCC(C)(C)C3NC(=O)O[C@@H]2CN3CCC2CC3)c1 (stereo partly drawn) [Example 166, (S)-quinuclidin-3-yl (7-(3-methoxyphenyl)-3,3-dimethylchroman-4-yl)carbamate] | 0.07 nM | 0.31 nM
22 | CC(C)Oc1ccc(-c2ccc3c(c2)OCC(C)(C)C3NC(=O)O[C@@H]2CN3CCC2CC3)cc1Cl (stereo partly drawn) [Example 167, (S)-quinuclidin-3-yl (7-(3-chloro-4-isopropoxyphenyl)-3,3-dimethylchroman-4-yl)carbamate] | 3.28 nM | 0.71 nM
23 | COc1cccc(OC)c1-c1ccc2c(c1)OCC(C)(C)C2NC(=O)O[C@@H]1CN2CCC1CC2 (stereo partly drawn) [Example 168, (S)-quinuclidin-3-yl (7-(2,6-dimethoxyphenyl)-3,3-dimethylchroman-4-yl)carbamate] | 2.05 nM | 1.4 nM
24 | CC1(C)COc2cc(-c3ccccc3Cl)ccc2C1NC(=O)O[C@@H]1CN2CCC1CC2 (stereo partly drawn) [Example 169, (S)-quinuclidin-3-yl (7-(2-chlorophenyl)-3,3-dimethylchroman-4-yl)carbamate] | 0.25 nM | 0.37 nM
25 | CC1(C)COc2cc(-c3cccc(C#N)c3)ccc2C1NC(=O)O[C@@H]1CN2CCC1CC2 (stereo partly drawn) [Example 170, (S)-quinuclidin-3-yl (7-(3-cyanophenyl)-3,3-dimethylchroman-4-yl)carbamate] | 5.83 nM | 0.42 nM
